Source: patent US10328075B2, “Method of treatment and compounds for use therein” (Baker Heart and Diabetes Institute, priority 2015, dated 2019)

Key:
Format in all cases: cell-based
hFPR1 [1] = molecular target: T1, hFPR1 (Homo sapiens, UniProt P21462); assay: Akt (Thr308) phosphorylation in hFPR1-FlpIn-CHO cells
T1 construct: expressed in transfected cells
T1 sequence (P21462 1-350): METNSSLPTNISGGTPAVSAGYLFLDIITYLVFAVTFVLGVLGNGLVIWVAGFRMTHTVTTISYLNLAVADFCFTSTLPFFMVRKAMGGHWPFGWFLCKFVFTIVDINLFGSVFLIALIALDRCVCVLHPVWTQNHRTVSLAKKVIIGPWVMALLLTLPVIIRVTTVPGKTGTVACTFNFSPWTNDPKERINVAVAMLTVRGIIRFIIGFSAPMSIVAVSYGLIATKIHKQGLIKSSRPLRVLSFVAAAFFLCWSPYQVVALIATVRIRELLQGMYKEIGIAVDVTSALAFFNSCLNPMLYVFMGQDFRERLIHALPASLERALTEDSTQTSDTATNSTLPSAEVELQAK
Text: (§1) cDNDA construct and generation of stable cell lines: cDNA in pcDNA3.1^+ encoding the human formyl peptide receptors (FPR) subtypes, hFPR1, hFPR2 and hFPR3 was obtained from Invitrogen. The sequences for 3 hFPR receptors were amplified by PCR and cloned into the Gateway entry vector, pDONR202™, using the BP clonase enzyme mix, according to the manufactures' instructions (Invitrogen Inc, Carlsbad, Calif., USA). All hFPR receptors constructs in pDONR201™ were subsequently transfected into the pEF5/FRT/V5/dest vector using the LR clonase enzyme mix (Invitrogen). Receptor constructs (pEF5/FRT/V5/dest) were used to transfect FIp-In CHO cells as described previously (Valant C et al., PNAS, 2014). Cells were selected using 500 μg/mL hydromycin to generate cell lines stably expressing each receptor construct. Cells were maintained and cultured in high glucose DMEM supplemented with 10% FBS, 16 mM HEPES and 500 μg/mL hydromycin at 37° C. under a humidified atmosphere containing 5% CO2.
(§2) In the various assays described below, cells were plated into 96-well transparent cell culture plates at 4×10^4 cells per well, cultured overnight in serum-free media at 37° C. in 5% CO2.
(§3) Measurement of Akt1/2/3 phosphorylation and Akt 1: The same lysate was used for measurement of Akt1/2/3 phosphorylation (Ser473) and Akt1 (Thr308). Cells were lysed in SureFire lysis buffer and transferred to 384-well opaque proxiplates. Under low-light conditions, a 1:10:40 (v:v:v) dilution of AlphaScreen acceptor beads:Surefire activation buffer:Surefire reaction buffer was prepared and the plate was incubated in the dark at RT for 2 h. Then, a 1:20 (v:v) dilution of AlphaScreen donor beads/dilution was prepared and incubated in the dark at RT for another 2 h, before the fluorescence signal was measured by used of a Fusion-α plate reader (PerkinElmer Life and Analytical Sciences) with standard AlphaScreen settings. Receptor mediated phosphorylation of Akt1/2/3 (Ser473) and Akt1 (Thr308) were determined using the AlphaScreen™ […] SureFire™ kit, as per as per manufacturer's instructions. Data were normalized to the maximal response elicited by 10% (v:v) FBS at the same time point.
(§4) Data analysis: All data were analysed using GraphPad Prism 6.0 (GraphPad Software, San Deigo, Calif., USA). Where appropriate, concentration-response curves were fitted to derive the maximal agonist effect (Emax), and the ligand potency estimate (pEC50), where Emax is the maximal possible response of the system (not the agonist), basal is the basal level of response in the absence of agonist, and pEC50 is the negative logarithm of the agonist concentration that gives a response halfway between Emax and basal.
(§5) In the present study, FIp-IN CHO cells and Gateway plasmid were obtained from Invitrogen Inc (Carlsbad, Calif., USA). The sequences for all 3 known human FPRs (hFPR1, hFPR2 and hFPR3) were amplified by PCR and cloned into the Gateway entry vector, pDONR202TM, using the BP clonase enzyme mix, according to the manufacturers' instructions. The hFPR pDONR201TM constructs were subsequently transfected into the pEF5/FRT/V5/dest vector using the LR clonase enzyme mix (Invitrogen). Receptor constructs (pEF5/FRT/V5/dest) were used to transfect FIp-IN CHO cells, as described previously (Valant et al. 2014). Cells were selected using 500 μg/mL hydromycin to generate cell lines stably expressing each human receptor construct. Cells were maintained and cultured in high glucose Dulbecco's modified eagle medium (DMEM) supplemented with 10% fetal bovine serum (FBS, from JRH Biosciences, Lenexa, Kans., USA) and 500 μg/mL hydromycin B (Invitrogen Inc) at 37° C. under a humidified atmosphere containing 5% CO2. Cell were plated into 96-well transparent cell culture plates at 4×10^4 cells per well, cultured overnight in serum-free media at 37° C. in 5% CO2.

hFPR1 [2] = molecular target: T1, hFPR1; assay: Akt1/2/3 (Ser473) phosphorylation in hFPR1-FlpIn-CHO cells
Text: as §1, §2, §3, §4, §5

hFPR1 [3] = molecular target: T1, hFPR1; assay: Inhibition of forskolin-stimulated cAMP accumulation in hFPR1-FlpIn-CHO cells; conditions: for Concentration-response profile on forskolin-stimulated cAMP accumulation at hFPR1: in words
Text: as §1, §2
cAMP Accumulation: CHO-hFPR1, -hFPR2 and -hFPR3 stable transfected cells were plated into 96-well plates and cultured overnight at 37° C. in 5% CO2. Cells were washed with PBS, and cultured overnight. […] Cells were lysed in detection buffer (dH2O, 0.3% Tween 20, 5 mM HEPES, 0.1% BSA). Lysates were transferred to a 384-well plate and mixtures of detection buffer/donor bead-conjugated anti-cAMP antibody and detection buffer: biotinylated cAMP: acceptor bead-conjugated streptavidin were added to the lysates according to the PerkinElmer cAMP Alphascreen protocol. Under low-light conditions, a 1:50 (v:v) dilution of AlphaScreen acceptor beads: stimulation buffer was prepared, 1:150 (v:v) dilution of donor beads and 50 nM biotinylated cAMP in detection buffer was prepared in a 384-well opaque optiplates. Plates were incubated in the dark at room temperature overnight before the fluorescence signal was measured by use of a Fusion-α plate reader (PerkinElmer Life and Analytical Sciences). Data were normalized to the response elicited by 10 μM forskolin at the same time point.
as §4, §5

[4] = Table 8, normalized transduction coefficient, reference agonist Cmpd43
[5] = Table 8, transduction coefficient

CC(C)C1C(NC(=O)Nc2ccc(Cl)cc2)C(=O)N(c2ccccc2)N1C (centres unmarked) [BIDI-002]
Emax (hFPR1 [1]; Table 3, percentage of Akt1/2/3 phosphorylation elicited by 10% FBS, read-out: Emax (%), Akt 1 (Thr308) phosphorylation, hFPR1-Flpln-CHO): 15 ± 4% | EC50 (hFPR1 [1]; Table 3, read-out: pEC50, Akt 1 (Thr308) phosphorylation, hFPR1-Flpln-CHO (converted)): 129 nM | ΔLog(τ/KA), Akt 1/2/3 (Thr308) phosphorylation, hFPR1-Flpln-CHO (hFPR1 [1]; [4]): 0.0 | Emax (hFPR1 [1]; Table 8, percent of response elicited by 10% FBS, read-out: Emax, Akt 1/2/3 (Thr308) phosphorylation, hFPR1-Flpln-CHO): 15 ± 4% | EC50 (hFPR1 [1]; Table 8, read-out: pEC50, Akt 1/2/3 (Thr308) phosphorylation, hFPR1-Flpln-CHO (converted)): 126 nM | Log(τ/KA), Akt 1/2/3 (Thr308) phosphorylation, hFPR1-Flpln-CHO (hFPR1 [1]; [5]): 6.9 ± 0.3 | Emax (hFPR1 [2]; Table 3, percentage of Akt1/2/3 phosphorylation elicited by 10% FBS, read-out: Emax (%), Akt 1/2/3 (Ser473), hFPR1-Flpln-CHO): 13 ± 3% | EC50 (hFPR1 [2]; Table 3, read-out: pEC50, Akt 1/2/3 (Ser473), hFPR1-Flpln-CHO (converted)): 87.1 nM | ΔLog(τ/KA), Akt 1/2/3 (Ser473) phosphorylation, hFPR1-Flpln-CHO (hFPR1 [2]; [4]): 0.0 | Emax (hFPR1 [2]; Table 8, percent of response elicited by 10% FBS, read-out: Emax, Akt 1/2/3 (Ser473) phosphorylation, hFPR1-Flpln-CHO): 13 ± 3% | EC50 (hFPR1 [2]; Table 8, read-out: pEC50, Akt 1/2/3 (Ser473) phosphorylation, hFPR1-Flpln-CHO (converted)): 79.4 nM | Log(τ/KA), Akt 1/2/3 (Ser473) phosphorylation, hFPR1-Flpln-CHO (hFPR1 [2]; [5]): 6.9 ± 0.3 | Emax (hFPR1 [3]; Table 4, percentage inhibition of forskolin-stimulated cAMP accumulation, read-out: Emax (%), inhibition to cAMP accumulation, hFPR1-Flpln-CHO): 27 ± 20% | EC50 (hFPR1 [3]; Table 4, read-out: pEC50, inhibition to cAMP accumulation, hFPR1-Flpln-CHO (converted)): 74.1 nM | ΔLog(τ/KA), inhibition of cAMP accumulation, hFPR1-Flpln-CHO (hFPR1 [3]; [4]): 0.0 | Emax (hFPR1 [3]; Table 8, percent inhibition of forskolin-induced cAMP accumulation, read-out: Emax, inhibition of cAMP accumulation, hFPR1-Flpln-CHO): 27 ± 20% | EC50 (hFPR1 [3]; Table 8, read-out: pEC50, inhibition of cAMP accumulation, hFPR1-Flpln-CHO (converted)): 79.4 nM | Log(τ/KA), inhibition of cAMP accumulation, hFPR1-Flpln-CHO (hFPR1 [3]; [5]): 7.1 ± 0.3 | Concentration-response profile on forskolin-stimulated cAMP accumulation at hFPR1 (hFPR1 [3]): bell-shaped curves | Concentration-response profile on forskolin-stimulated cAMP accumulation at hFPR1 (hFPR1 [3]; listed as Cmpd43): bi-phasic curve
